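GI50 is the concentration that inhibits growth by half. TGI denotes the concentration required for complete inhibition of growth.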
Legend:
Assay in all cases: NCI tumour cell line growth inhibition, 384-well format
[1] = test system: RPMI-8226 leukemia
[2] = test system: MDA-MB-468 breast
[3] = test system: HOP-92 NSCLC
[4] = test system: HOP-62 NSCLC
[5] = test system: ACHN renal
[6] = test system: EKVX NSCLC
[7] = test system: SNB-75 CNS
[8] = test system: SF-268 CNS
[9] = test system: HT29 colon
[10] = test system: M14 melanoma
[11] = test system: OVCAR-5 ovarian
[12] = test system: HS 578T breast
[13] = test system: U251 glioblastoma
[14] = test system: NCI-H522 lung
[15] = test system: OVCAR-4 ovarian
[16] = test system: CCRF-CEM leukemia
[17] = test system: SN12C renal
[18] = test system: MOLT-4 leukemia
[19] = test system: 786-0 renal
[20] = test system: OVCAR-8 ovarian
[21] = test system: A498 renal
[22] = test system: HCT-116 colon
[23] = test system: PC-3 prostate
[24] = test system: MALME-3M melanoma
[25] = test system: LOX IMVI melanoma
[26] = test system: SNB-19 CNS
[27] = test system: SK-MEL-5 melanoma
[28] = test system: DU-145 prostate
[29] = test system: SK-OV-3 ovarian
[30] = test system: SF-539 CNS
[31] = test system: NCI/ADR-RES ovarian
[32] = test system: HCT-15 colon
[33] = test system: KM12 colon
[34] = test system: NCI-H322M lung
[35] = test system: CAKI-1 renal
[36] = test system: NCI-H460 NSCLC
[37] = test system: IGROV1 ovarian
[38] = test system: UO-31 renal
[39] = test system: UACC-257 melanoma
[40] = test system: RXF 393 renal
[41] = test system: T-47D breast
[42] = test system: NCI-H226 lung
[43] = test system: OVCAR-3 ovarian
[44] = test system: SF-295 CNS
[45] = test system: SR leukemia
[46] = test system: A549 NSCLC
[47] = test system: MCF7 breast
[48] = test system: SK-MEL-28 melanoma
[49] = test system: SW-620 colon
[50] = test system: BT-549 breast
[51] = test system: MDA-MB-231 breast
[52] = test system: NCI-H23 lung
[53] = test system: COLO 205 colon
[54] = test system: K-562 leukemia
[55] = test system: MDA-MB-435 melanoma
[56] = test system: TK-10 renal

C[C@H]1CNC(=O)c2cnn3ccc(nc23)N[C@H](C)c2cc(F)ccc2O1 was tested, and the GI50 [1] was 1610 nM, the TGI [1] was 3.76 µM and the GI50 [2] was 629 nM. It also gave a TGI [2] of 2010 nM, a GI50 [3] of 516 nM and a TGI [3] of 1980 nM. It also gave a GI50 [4] of 1120 nM, a TGI [4] of 2850 nM and a GI50 [5] of 511 nM. The TGI [5] was 2650 nM, the GI50 [6] was 469 nM and the TGI [6] was 3.82 µM. The GI50 [7] was 209 nM, the TGI [7] was 816 nM and the GI50 [8] was 374 nM. The TGI [8] was 1550 nM, the GI50 [9] was 776 nM and the TGI [9] was 13.4 µM. The GI50 [10] was 31.7 µM, the TGI [10] was > 100 µM and the GI50 [11] was 527 nM. The TGI [11] was 2910 nM, the GI50 [12] was 249 nM and the TGI [12] was 1250 nM. The GI50 [13] was 2290 nM, the TGI [13] was 11.4 µM and the GI50 [14] was 463 nM. For the same compound, the TGI [14] was 2280 nM, the GI50 [15] was 687 nM and the TGI [15] was 7.35 µM. It also gave a GI50 [16] of 189 nM, a TGI [16] of 345 nM and a GI50 [17] of 664 nM. For the same compound, the TGI [17] was 2260 nM, the GI50 [18] was 180 nM and the TGI [18] was 342 nM. It also gave a GI50 [19] of 1290 nM, a TGI [19] of 2660 nM and a GI50 [20] of 1650 nM. For the same compound, the TGI [20] was 4.08 µM, the GI50 [21] was 779 nM and the TGI [21] was 2100 nM. The GI50 [22] was 477 nM, the TGI [22] was 11.1 µM and the GI50 [23] was 668 nM. The TGI [23] was 4.01 µM, the GI50 [24] was 4.21 µM and the TGI [24] was 30 µM. For the same compound, the GI50 [25] was 428 nM, the TGI [25] was 1450 nM and the GI50 [26] was 1830 nM. It also gave a TGI [26] of 7.86 µM, a GI50 [27] of 6.62 µM and a TGI [27] of 20.5 µM. It also gave a GI50 [28] of 1430 nM, a TGI [28] of 5.04 µM and a GI50 [29] of 522 nM. The TGI [29] was 2930 nM, the GI50 [30] was 1020 nM and the TGI [30] was 2230 nM. It also gave a GI50 [31] of 10.6 µM, a TGI [31] of 22.6 µM and a GI50 [32] of 1360 nM. It also gave a TGI [32] of 4.6 µM, a TGI [33] of 10.1 µM and a GI50 [34] of 1140 nM. It also gave a TGI [34] of 6.01 µM, a GI50 [35] of 829 nM and a TGI [35] of 2090 nM. The GI50 [36] was 391 nM, the TGI [36] was 1690 nM and the GI50 [37] was 229 nM. The TGI [37] was 911 nM, the GI50 [38] was 1360 nM and the TGI [38] was 2800 nM. The GI50 [39] was 12.2 µM, the TGI [39] was 37.4 µM and the GI50 [40] was 187 nM. For the same compound, the TGI [40] was 498 nM, the GI50 [41] was 1480 nM and the TGI [41] was 15.8 µM. The GI50 [42] was 525 nM, the TGI [42] was 2000 nM and the GI50 [43] was 414 nM. It also gave a TGI [43] of 2030 nM, a GI50 [44] of 243 nM and a TGI [44] of 1770 nM. It also gave a GI50 [45] of 37.2 nM, a TGI [45] of 116 nM and a GI50 [46] of 439 nM. For the same compound, the TGI [46] was 10.8 µM, the GI50 [47] was 429 nM and the TGI [47] was 15.2 µM. For the same compound, the GI50 [48] was 17.1 µM, the TGI [48] was 77.1 µM and the GI50 [49] was 444 nM. It also gave a TGI [49] of 2850 nM, a GI50 [50] of 1070 nM and a TGI [50] of 2300 nM. For the same compound, the GI50 [51] was 433 nM, the TGI [51] was 2460 nM and the GI50 [52] was 521 nM. The TGI [52] was 6.75 µM, the GI50 [53] was 1430 nM and the TGI [53] was 2930 nM. The GI50 [54] was 451 nM, the TGI [54] was 1850 nM and the GI50 [55] was 16.1 µM. It also gave a TGI [55] of 49.8 µM, a GI50 [56] of 635 nM and a TGI [56] of 2100 nM.
